In patent US11053213B2, “Pharmaceutical compounds” (ALMAC DISCOVERY LIMITED, priority 2016, dated 2021):
pIC50: −log10 of the molar value.

Target: USP19 (Homo sapiens (Human), UniProt O94966)
Assay: USP19 activity assay (fluorescence polarisation, Ubiquitin-Lys-TAMRA substrate)
Type: biochemical
Settings: full-length USP19 2.5 nM, 30 min pre-incubation, Ub substrate 500 nM; average of at least two duplicate experiments

Sequence of USP19 (O94966 whole entry): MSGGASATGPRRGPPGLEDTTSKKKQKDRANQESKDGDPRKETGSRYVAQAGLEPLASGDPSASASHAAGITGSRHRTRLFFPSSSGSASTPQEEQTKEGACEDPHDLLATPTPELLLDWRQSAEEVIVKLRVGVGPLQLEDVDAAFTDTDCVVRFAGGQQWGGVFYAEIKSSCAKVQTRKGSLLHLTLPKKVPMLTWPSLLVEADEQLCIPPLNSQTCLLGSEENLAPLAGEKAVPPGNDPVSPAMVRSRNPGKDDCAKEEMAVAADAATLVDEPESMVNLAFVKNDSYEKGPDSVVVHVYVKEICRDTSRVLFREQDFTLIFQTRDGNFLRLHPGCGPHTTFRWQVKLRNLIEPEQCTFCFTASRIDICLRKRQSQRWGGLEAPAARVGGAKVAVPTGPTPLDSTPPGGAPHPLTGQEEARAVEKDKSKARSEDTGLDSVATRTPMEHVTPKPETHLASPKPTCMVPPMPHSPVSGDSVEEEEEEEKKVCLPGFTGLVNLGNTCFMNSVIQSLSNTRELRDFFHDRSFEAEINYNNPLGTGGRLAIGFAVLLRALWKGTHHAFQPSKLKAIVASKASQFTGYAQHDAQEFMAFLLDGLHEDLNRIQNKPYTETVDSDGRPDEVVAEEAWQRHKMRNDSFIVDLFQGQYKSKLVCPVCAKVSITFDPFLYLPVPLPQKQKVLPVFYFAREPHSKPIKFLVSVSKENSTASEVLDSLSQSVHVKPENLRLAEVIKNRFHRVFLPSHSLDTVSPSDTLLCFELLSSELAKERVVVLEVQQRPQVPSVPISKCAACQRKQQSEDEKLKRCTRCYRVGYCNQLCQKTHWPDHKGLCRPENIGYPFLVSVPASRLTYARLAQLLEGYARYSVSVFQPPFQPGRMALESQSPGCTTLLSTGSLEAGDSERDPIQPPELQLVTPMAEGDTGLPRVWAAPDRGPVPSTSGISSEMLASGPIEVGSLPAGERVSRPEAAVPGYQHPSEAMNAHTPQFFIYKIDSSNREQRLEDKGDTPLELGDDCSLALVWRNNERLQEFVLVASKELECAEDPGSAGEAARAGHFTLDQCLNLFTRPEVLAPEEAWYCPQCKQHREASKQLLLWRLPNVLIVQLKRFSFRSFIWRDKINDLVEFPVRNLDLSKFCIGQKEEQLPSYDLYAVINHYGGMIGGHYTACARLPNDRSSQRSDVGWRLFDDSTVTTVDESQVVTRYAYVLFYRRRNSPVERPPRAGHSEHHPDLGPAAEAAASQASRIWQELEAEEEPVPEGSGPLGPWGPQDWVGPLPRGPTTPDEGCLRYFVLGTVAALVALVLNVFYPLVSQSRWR

SMILES | pIC50
C[C@H](CC(=O)N1CCC(O)(Cn2cc(-c3cccc(C(N)=O)c3)c(-c3ccccc3)cc2=O)CC1)c1ccccc1 [Example 7, (R)-3-(1-((4-Hydroxy-1-(3-phenylbutanoyl)piperidin-4-yl)methyl)6-oxo-4-phenyl-1,6-dihydropyridin-3-yl)benzamide] | 5.30 to 6.30
C[C@H](CC1CCC1)C(=O)N1CC[C@@](O)(Cn2cc(C(=O)N3CCNCC3)c(C3CC3)cc2=O)C2(CCCC2)C1 [Example 231, 1-(((S)-7-((R)-3-Cyclobutyl-2-methylpropanoyl)-10-hydroxy-7-azaspiro[4.5]decan-10-yl)methyl)-4-cyclopropyl-5-(piperazine-1-carbonyl)pyridin-2(1H)-one] | 5.30 to 6.30
C[C@H](CC1CCCCC1)C(=O)N1CCC(O)(Cn2cnc(-c3ccsc3)cc2=O)C(C)(C)C1 (stereo partly drawn) [Example 135, 3-((1-((R)-3-Cyclohexyl-2-methylpropanoyl)-4-hydroxy-3,3-dimethylpiperidin-4-yl)methyl)-6-(thiophen-3-yl)pyrimidin-4(3H)-one] | > 6.30
C[C@H](CC1CCCCC1)C(=O)N1CCC(O)(Cn2cnc(-c3ccc(CO)cc3)cc2=O)C(C)(C)C1 (stereo partly drawn) [Example 139, 3-((1-((R)-3-Cyclohexyl-2-methylpropanoyl)-4-hydroxy-3,3-dimethylpiperidin-4-yl)methyl)-6-(4-(hydroxymethyl)phenyl)pyrimidin-4(3H)-one] | > 6.30
C[C@H](CC(=O)N1CCC(O)(Cc2cnc(-c3ccccc3)[nH]c2=O)CC1)c1ccccc1 [Example 33, (R)-5-((4-Hydroxy-1-(3-phenylbutanoyl)piperidin-4-yl)methyl)-2-phenylpyrimidin-4(3H)-one] | 4.30 to 5.30
O=C(CCc1ccccc1)N1CCC(O)(Cn2cnc(-c3ccccc3F)cc2=O)CC1 [Example 2, 6-(2-Fluorophenyl)-3-((4-hydroxy-1-(3-phenylpropanoyl)piperidin-4-yl)methyl)pyrimidin-4(3H)-one] | 3.60 to 4.30
C[C@H](CC1CCCCC1)C(=O)N1CC[C@@](O)(Cn2cc(C(=O)N3CCC(O)CC3)c(-c3ccccc3)cc2=O)C(C)(C)C1 [Example 228, 1-(((S)-1-((R)-3-Cyclohexyl-2-methylpropanoyl)-4-hydroxy-3,3-dimethylpiperidin-4-yl)methyl)-5-(4-hydroxypiperidine-1-carbonyl)-4-phenylpyridin-2(1H)-one] | > 6.30
C[C@H](CC(=O)N1CCC(O)(Cn2cnc(Oc3ccc(F)cc3)cc2=O)CC1)c1ccccc1 [Example 54] | 3.60 to 4.30
C[C@H](CC(=O)N1CCC(O)(Cn2cc(CN(C)C)c(-c3ccccc3)cc2=O)CC1)c1ccccc1 [Example 46, (R)-5-((Dimethylamino)methyl)-1-((4-hydroxy-1-(3-phenylbutanoyl)piperidin-4-yl)methyl)-4-phenylpyridin-2(1H)-one] | 3.60 to 4.30
CC1(C)CN(C(=O)c2c[nH]nc2C2CCCCC2)CCC1(O)Cn1cnc(-c2ccccc2F)cc1=O (racemic) [Example 67, (R,S)-3-((1-(3-Cyclohexyl-1H-pyrazole-4-carbonyl)-4-hydroxy-3,3-dimethylpiperidin-4-yl)methyl)-6-(2-fluorophenyl)pyrimidin-4(3H)-one] | 4.30 to 5.30
C[C@H](CC1CCCCC1)C(=O)N1CCC(O)(Cn2cc(-c3ncco3)c(-c3ccccc3)cc2=O)C(C)(C)C1 (stereo partly drawn) [Example 136, 1-((1-((R)-3-Cyclohexyl-2-methylpropanoyl)-4-hydroxy-3,3-dimethylpiperidin-4-yl)methyl)-5-(oxazol-2-yl)-4-phenylpyridin-2(1H)-one] | 5.30 to 6.30
C[C@H](CC(=O)N1CCC(O)(Cn2cc(-c3cccc(CN)c3)c(-c3ccccc3)cc2=O)CC1)c1ccccc1 [Example 100, (R)-5-(3-(Aminomethyl)phenyl)-1-((4-hydroxy-1-(3-phenylbutanoyl)piperidin-4-yl)methyl)-4-phenylpyridin-2(1H)-one] | 4.30 to 5.30
CN(C)C(=O)c1cn(CC2(O)CCN(C(=O)COC3CCC3)CC23CCCC3)c(=O)cc1-c1ccccc1 (centres unmarked) [Example 201, 1-((7-(2-Cyclobutoxyacetyl)-10-hydroxy-7-azaspiro[4.5]decan-10-yl)methyl)-N,N-dimethyl-6-oxo-4-phenyl-1,6-dihydropyridine-3-carboxamide] | 4.30 to 5.30
Cc1nc(-c2ccccc2)cc(=O)n1CC1(O)CCN(C(=O)C[C@@H](C)c2ccccc2)CC1 [Example 18, (R)-3-((4-Hydroxy-1-(3-phenylbutanoyl)piperidin-4-yl)methyl)-2-methyl-6-phenylpyrimidin-4(3H)-one] | 4.30 to 5.30
C[C@H](CC(=O)N1CCC(O)(Cn2cc(C=O)c(-c3ccccc3)cc2=O)CC1)c1ccccc1 [Example 45, (R)-1-((4-Hydroxy-1-(3-phenylbutanoyl)piperidin-4-yl)methyl)-6-oxo-4-phenyl-1,6-dihydropyridine-3-carbaldehyde] | 3.60 to 4.30
C[C@H](CC1CCCCC1)C(=O)N1CCC(O)(Cn2cc(C(=O)N3CCOCC3)c(-c3ccccc3)cc2=O)C(C)(C)C1 (stereo partly drawn) [Example 168, 1-((1-((R)-3-Cyclohexyl-2-methylpropanoyl)-4-hydroxy-3,3-dimethylpiperidin-4-yl)methyl)-5-(morpholine-4-carbonyl)-4-phenylpyridin-2(1H)-one] | > 6.30
C[C@H](CC(=O)N1CCC(O)(Cn2cc(C(=O)N3CCN(C(=O)OC(C)(C)C)CC3)c(-c3ccccc3)cc2=O)CC1)c1ccccc1 [Example 93, (R)-tert-Butyl 4-(1-((4-hydroxy-1-(3-phenylbutanoyl)piperidin-4-yl)methyl)-6-oxo-4-phenyl-1,6-dihydropyridine-3-carbonyl)piperazine-1-carboxylate] | 4.30 to 5.30

More lines, now with the values ahead:

pIC50 | SMILES
> 6.30 | C[C@H](CC(F)(F)F)C(=O)N1CC[C@@](O)(Cn2cc(C(=O)N3CCOCC3)c(-c3ccccc3)cc2=O)C2(CCCC2)C1 [Example 250, 1-(((S)-10-Hydroxy-7-((R)-4,4,4-trifluoro-2-methylbutanoyl)-7-azaspiro[4.5]decan-10-yl)methyl)-5-(morpholine-4-carbonyl)-4-phenylpyridin-2(1H)-one]
3.60 to 4.30 | CN(C)C(=O)c1cn(CC2(O)CCN(C(=O)CCC3CCOC3)CC23CCCC3)c(=O)cc1-c1ccccc1 (centres unmarked) [Example 173, 1-((10-Hydroxy-7-(3-(tetrahydrofuran-3-yl)propanoyl)-7-azaspiro[4.5]decan-10-yl)methyl)-N,N-dimethyl-6-oxo-4-phenyl-1,6-dihydropyridine-3-carboxamide]
4.30 to 5.30 | CN(C)C(=O)c1cn(CC2(O)CCN(C(=O)CCC(F)(F)F)CC23CCCC3)c(=O)cc1-c1ccccc1 (centres unmarked) [Example 172, 1-((10-Hydroxy-7-(4,4,4-trifluorobutanoyl)-7-azaspiro[4.5]decan-10-yl)methyl)-N,N-dimethyl-6-oxo-4-phenyl-1,6-dihydropyridine-3-carboxamide]
> 6.30 | C[C@H](CC1CCCCC1)C(=O)N1CCC(O)(Cn2cc(C(=O)N(C)C)c(-c3ccc(CO)cc3)cc2=O)C2(CCCC2)C1 (stereo partly drawn) [Example 162, 1-((7-((R)-3-Cyclohexyl-2-methylpropanoyl)-10-hydroxy-7-azaspiro[4.5]decan-10-yl)methyl)-4-(4-(hydroxymethyl)phenyl)-N,N-dimethyl-6-oxo-1,6-dihydropyridine-3-carboxamide]
3.60 to 4.30 | CN(C)C(=O)c1cn(CC2(O)CCN(C(=O)C3CC3)CC23CCCC3)c(=O)cc1-c1ccccc1 (centres unmarked) [Example 175, 1-((7-(Cyclopropanecarbonyl)-10-hydroxy-7-azaspiro[4.5]decan-10-yl)methyl)-N,N-dimethyl-6-oxo-4-phenyl-1,6-dihydropyridine-3-carboxamide]
> 6.30 | C[C@H](CC1CCCCC1)C(=O)N1CCC(O)(Cn2cc(C(=O)N(C)C)c(-c3ccccc3)cc2=O)C2(CCCCC2)C1 (stereo partly drawn) [Example 237, 1-((2-((R)-3-Cyclohexyl-2-methylpropanoyl)-5-hydroxy-2-azaspiro[5.5]undecan-5-yl)methyl)-N,N-dimethyl-6-oxo-4-phenyl-1,6-dihydropyridine-3-carboxamide]
5.30 to 6.30 | C[C@H](CC(=O)N1CCC(O)(Cn2cc(C(=O)N3CCC(CO)CC3)c(-c3ccccc3)cc2=O)CC1)c1ccccc1 [Example 117, (R)-1-((4-Hydroxy-1-(3-phenylbutanoyl)piperidin-4-yl)methyl)-5-(4-(hydroxymethyl)piperidine-1-carbonyl)-4-phenylpyridin-2(1H)-one]
4.30 to 5.30 | CN(C)C(=O)c1cn(CC2(O)CCN(C(=O)c3cccn3Cc3ccccc3)CC23CCCC3)c(=O)cc1-c1ccccc1 (centres unmarked) [Example 198, 1-((7-(1-Benzyl-1H-pyrrole-2-carbonyl)-10-hydroxy-7-azaspiro[4.5]decan-10-yl)methyl)-N,N-dimethyl-6-oxo-4-phenyl-1,6-dihydropyridine-3-carboxamide]
3.60 to 4.30 | CN(C)C(=O)c1cn(CC2(O)CCN(C(=O)C34CC(C3)C4)CC23CCCC3)c(=O)cc1-c1ccccc1 (centres unmarked) [Example 191, 1-((7-(Bicyclo[1.1.1]pentane-1-carbonyl)-10-hydroxy-7-azaspiro[4.5]decan-10-yl)methyl)-N,N-dimethyl-6-oxo-4-phenyl-1,6-dihydropyridine-3-carboxamide]
4.30 to 5.30 | CN(C)C(=O)c1cn(CC2(O)CCN(C(=O)C3CC34CC4)CC23CCCC3)c(=O)cc1-c1ccccc1 (centres unmarked) [Example 195, 1-((10-Hydroxy-7-(spiro[2.2]pentane-1-carbonyl)-7-azaspiro[4.5]decan-10-yl)methyl)-N,N-dimethyl-6-oxo-4-phenyl-1,6-dihydropyridine-3-carboxamide]
5.30 to 6.30 | C[C@H](CC1CCC1)C(=O)N1CCC(O)(Cn2cc(C(=O)N(C)C)c(-c3ccccc3)cc2=O)C(C)(C)C1 (stereo partly drawn) [Example 128, 1-((1-((R)-3-Cyclobutyl-2-methylpropanoyl)-4-hydroxy-3,3-dimethylpiperidin-4-yl)methyl)-N,N-dimethyl-6-oxo-4-phenyl-1,6-dihydropyridine-3-carboxamide]
5.30 to 6.30 | CN(C)C(=O)c1cn(C[C@]2(O)CCN(C(=O)C(CC(F)(F)F)CC(F)(F)F)CC23CCCC3)c(=O)cc1-c1ccccc1 [Example 218, (S)-1-((10-Hydroxy-7-(4,4,4-trifluoro-2-(2,2,2-trifluoroethyl)butanoyl)-7-azaspiro[4.5]decan-10-yl)methyl)-N,N-dimethyl-6-oxo-4-phenyl-1,6-dihydropyridine-3-carboxamide]
